Laboratory results taken from patent US10537127B2, “Organic compounds” (GIVAUDAN SA, priority 2013, dated 2020).

Experiment: Beef bouillon taste evaluation by a panel of experienced tasters
Settings: 40 ppb dosed to beef bouillon made from bouillon cubes; versus reference bouillon
Experimental: A beef bouillon was prepared using bouillon cubes obtained from a local supermarket.

Compound	taste of the bouillon compared with the reference (panel agreement)
O=C(O)CCCCCCCC(=O)NC(Cc1c[nH]c2ccccc12)C(=O)O (stereo not drawn) [Example 1, 9-((1-Carboxy-2-(1H-indol-3-yl)ethyl)amino)-9-oxononanoic acid]	more umami, more salty and more full than the reference
O=C(O)CCCCCCCC(=O)N1CCCC1C(=O)O (stereo not drawn) [Example 2, 1-(8-Carboxyoctanoyl)pyrrolidine-2-carboxylic acid]	more salt impact, and more umami taste than the reference
O=C(O)CCCCCCCC(=O)NCCCC(=O)O [Example 3, 9-((3-Carboxypropyl)amino)-9-oxononanoic acid]	more salty and had more “bite” than the reference
